Test system: brain
Experiment: Genes induced in the brain following kainic acid-induced seizures (microarray)
Format: in vivo, rat
Design: key: NC = No Change
Protocol: Status epilepticus is produced by intraperitoneally injecting a glutamate analogue/excitotoxin, kainic acid (10 mg/kg i.p.). Animals with kainate-induced seizures are observed following drug administration to ensure that they continue to have complex seizures over a 30 minute period.
All animals are allowed to survive for 24 hours following each treatment. At that time they are deeply anesthetized with ketamine (100 mg/kg) and xylazine (20 mg/kg) given intraperitoneally. Once anesthetized, the chest is opened and a direct cardiac puncture performed with a syringe and 10 cc of blood is aspirated. Immediately following removal of the blood, the animal is decapitated while deeply anesthetized and the brain removed.
One day after hypoxia, status epilepticus, hypoglycemia, ischemic stroke, and hemorrhagic stroke are produced in adult rats, RNA or protein is isolated from the blood cells and from the brains of the animals described in Example 1. The pattern of genes or proteins expressed in the blood cells following each of these types of injury—hypoxia, status epilepticus, hypoglycemia, ischemic stroke, and hemorrhagic stroke is captured on a commercially available microarray (Affymetrix chip). The pattern of gene or protein expression is defined using an expression method, which then forms a genomic or proteomic organ injury database, which is used in assessing injury.
Note that the genes induced in the blood are different from the genes induced in the brain. Therefore, different organs express different genes. In addition, the genes induced by hypoxia in the blood are different from the genes induced by hypoxia in the brain. That is, the same stimulus induces different genes in different organs. Lastly, even though similar genes are induced in the brain by ischemia (stroke) and kainic acid-induced seizures, there are many differences in the gene expression between the two. Therefore, the pattern of gene expression in the brains of ischemic animals is distinctive from the pattern of expression of the kainate animals, and this pattern can be used to diagnose the different conditions of stroke and status epilepticus, even though many of the same genes are induced in the two conditions.
In further support, the following Tables 5 and 6 list those genes induced in the brain following stroke, kainic induced seizures, and hypoxia as compared with untouched controls and sham-operated controls.

C=C(C)[C@H]1CN[C@H](C(=O)O)[C@H]1CC(=O)O [kainate, kainic acid]
Kainic Acid Seizure (fold change) (brain, D29769_at bone morphogenic protein-7): NC | Kainic Acid Seizure (fold change) (brain, J03624_at Rat galanin (a neuropeptide) RNA): 3 fold change | Kainic Acid Seizure (fold change) (brain, L20913_s_at vascular endothelial growth factor form 3 RNA): NC | Kainic Acid Seizure (fold change) (brain, L32591RNA_g GADD45 RNA): 3 fold change | Kainic Acid Seizure (fold change) (brain, L46593cds_at small proline-rich protein (spr) gene): 4 fold change | Kainic Acid Seizure (fold change) (brain, M55534RNA_s Rat alpha-crystallin b chain RNA): 2 fold change | Kainic Acid Seizure (fold change) (brain, M60616_at Rat collagenase (UMRCase) RNA): NC | Kainic Acid Seizure (fold change) (brain, M63282_at Rat leucine zipper protein RNA): NC | Kainic Acid Seizure (fold change) (brain, M90661_at Rattus norvegicus insulin receptor-related receptor-alpha subunit RNA): NC | Kainic Acid Seizure (fold change) (brain, RC_AA891041 EST): NC | Kainic Acid Seizure (fold change) (brain, U13396_at protein-tyrosine kinase (JAK2) RNA): NC | Kainic Acid Seizure (fold change) (brain, U16674_at interleukin-12p40 RNA): NC | Kainic Acid Seizure (fold change) (brain, U49930_g_at ICE-like cysteine protease (Lice) RNA): 2.7 fold change | Kainic Acid Seizure (fold change) (brain, U77829RNA_s Rattus norvegicus gas-5 growth arrest homolog NCn-translated RNA sequence): 3.4 fold change | Kainic Acid Seizure (fold change) (brain, U88572_at AMPA receptor interacting protein GRIP RNA): 3.5 fold change | Kainic Acid Seizure (fold change) (brain, U099870_at Vmajor vault protein RNA): 2.5 fold change | Kainic Acid Seizure (fold change) (brain, Y10619cds_at transcriptional regulator, Relax): 3.5 fold change | Kainic Acid Seizure (fold change) (brain, a30543cds_s_ p-Meta-a RNA for CD44 surface protein from patent WO9117248): 4.4 fold change | Kainic Acid Seizure (fold change) (brain, ab005900_at endothelial receptor for oxidized low density): NC | Kainic Acid Seizure (fold change) (brain, af00898_at p58/p45 RNA, alternatively spliced form clone H): 3.3 fold change | Kainic Acid Seizure (fold change) (brain, af28784cds# glial fibrillary acidic proteins alpha and delta (GFAP) gene): 6.2 fold change | Kainic Acid Seizure (fold change) (brain, af030089UTR# Rattus norvegicus activity and neurotransmitter-induced early gene): 4 fold change | Kainic Acid Seizure (fold change) (brain, af036537_at homocysteine respondent protein): NC | Kainic Acid Seizure (fold change) (brain, af036537 homocysteine respondent protein HCYP2 RNA): NC | Kainic Acid Seizure (fold change) (brain, af053362_at Rattus norvegicus death effector domain-containing protein DEFT RNA): NC | Kainic Acid Seizure (fold change) (brain, af074608RNA MHC class I antigen (RT1.EC2) gene): 3 fold change | Kainic Acid Seizure (fold change) (brain, af083269_at p41-Arc RNA): 3.3 fold change | Kainic Acid Seizure (fold change) (brain, af083269_g_at p41-Arc RNA): 3.3 fold change | Kainic Acid Seizure (fold change) (brain, af086624_s_a serine threonine kinase (pim-3) RNA): NC | Kainic Acid Seizure (fold change) (brain, af087944RNA monocyte differentiation antigen CD14 gene): 2.6 fold change | Kainic Acid Seizure (fold change) (brain, af092090_at cp151 RNA): 2.7 fold change | Kainic Acid Seizure (fold change) (brain, aj222813_s_a precursor interleukin 18 (IL-18)): 3.8 fold change | Kainic Acid Seizure (fold change) (brain, d00913_g_at intercellular adhesion molecule-1): NC | Kainic Acid Seizure (fold change) (brain, d8557s_at RYB-a): 3.5 fold change | Kainic Acid Seizure (fold change) (brain, d17370_g_at cystathionine gamma-lyase): 3.8 fold change | Kainic Acid Seizure (fold change) (brain, d89069_f_at inducible carbonyl reductase): NC | Kainic Acid Seizure (fold change) (brain, d90404_at cathepsin C): 2.8 fold change | Kainic Acid Seizure (fold change) (brain, d90404_g_at cathepsin C): NC | Kainic Acid Seizure (fold change) (brain, j00780_at rat preprorelaxin RNA): NC | Kainic Acid Seizure (fold change) (brain, j04563_at Rat cAMP phosphodiesterase RNA): 5.4 fold change | Kainic Acid Seizure (fold change) (brain; j04792_at ornithine decarboxylase ODC) gene): 1.7 fold change | Kainic Acid Seizure (fold change) (brain, m13979_at Rat brain and all other organ glucose-transporter protein RNA): 2.1 fold change | Kainic Acid Seizure (fold change) (brain, m18330_at Rat protein kinase C delta subspecies): 3.3 fold change | Kainic Acid Seizure (fold change) (brain, m19257_at Rat cysosolic retinol-binding protein (CRBP) RNA): 4 fold change | Kainic Acid Seizure (fold change) (brain, m32062_at Rat Fc-gamma receptor RNA): 1.5 fold change | Kainic Acid Seizure (fold change) (brain, m34253_g_at Rat-interferon regulatory factor1 (IRF-a) RNA): 3 fold change | Kainic Acid Seizure (fold change) (brain, m60753_s_at catechol-O-methyltransferase RNA): 4.5 fold change | Kainic Acid Seizure (fold change) (brain, m63122_at Rat tumor necrosis factor receptor (TNF receptor)): 2.8 fold change | Kainic Acid Seizure (fold change) (brain, m80633_at Rat adenylyl cyclase type (IV) RNA): 5.2 fold change | Kainic Acid Seizure (fold change) (brain, rc_A1014163 EST): 2.3 fold change | Kainic Acid Seizure (fold change) (brain, rc_aa799323— EST): NC | Kainic Acid Seizure (fold change) (brain, rc_aa799448 EST): NC | Kainic Acid Seizure (fold change) (brain, rc_aa799686 EST): 6.3 fold change | Kainic Acid Seizure (fold change) (brain, rc_aa799773 EST): 4.7 fold change | Kainic Acid Seizure (fold change) (brain, rc_aa800701 EST): NC | Kainic Acid Seizure (fold change) (brain, rc_aa800962 EST): NC | Kainic Acid Seizure (fold change) (brain, rc_aa866443 EST): NC | Kainic Acid Seizure (fold change) (brain, rc_aa875032 EST): NC | Kainic Acid Seizure (fold change) (brain, rc_aa875126 EST): 8.7 fold change | Kainic Acid Seizure (fold change) (brain, rc_aa891576 EST): NC | Kainic Acid Seizure (fold change) (brain, rc_aa892750 EST): NC | Kainic Acid Seizure (fold change) (brain, rc_aa892775 EST): 2.3 fold change | Kainic Acid Seizure (fold change) (brain, rc_aa892851 EST): NC | Kainic Acid Seizure (fold change) (brain, rc_aa900476 EST): NC | Kainic Acid Seizure (fold change) (brain, rc_aa926129_ EST): 4.9 fold change | Kainic Acid Seizure (fold change) (brain, rc_aa945737 EST): NC | Kainic Acid Seizure (fold change) (brain, rc_aa946044 EST): 2.8 fold change | Kainic Acid Seizure (fold change) (brain, rc_ai6i39302 EST): NC | Kainic Acid Seizure (fold change) (brain, rc_ai070295 EST): 1.9 fold change | Kainic Acid Seizure (fold change) (brain, rc_ai71962 EST): 1.9 fold change | Kainic Acid Seizure (fold change) (brain, rc_ai169756 EST): 1.7 fold change | Kainic Acid Seizure (fold change) (brain, rc_ai171966 EST): 3.8 fold change | Kainic Acid Seizure (fold change) (brain, rc_ai176456 EST): 2.3 fold change | Kainic Acid Seizure (fold change) (brain, rc_ai233219 EST): NC | Kainic Acid Seizure (fold change) (brain, rc_ai638945 EST): NC | Kainic Acid Seizure (fold change) (brain, rc_ai639042): NC | Kainic Acid Seizure (fold change) (brain, rc_ai639161 EST): 7.5 fold change | Kainic Acid Seizure (fold change) (brain, rc_ai639233 EST): NC | Kainic Acid Seizure (fold change) (brain, rc_ai639372_ EST): NC | Kainic Acid Seizure (fold change) (brain, rc_ai639402 EST): NC | Kainic Acid Seizure (fold change) (brain, rc_ai639457 EST): NC | Kainic Acid Seizure (fold change) (brain, s77494_s_at lysyl oxidase {3Nuntranslated region} [rats, aorta smooth muscle cell): NC | Kainic Acid Seizure (fold change) (brain, s82649_s_at Narp = neuronal activity-regulated pentraxin): 2.2 fold change | Kainic Acid Seizure (fold change) (brain, u04835_at CREMdeltaC—G gene): 2.1 fold change | Kainic Acid Seizure (fold change) (brain, u05014_at Rattus norvegicus Sprague/Dawley PHAS-a): 3.9 fold change | Kainic Acid Seizure (fold change) (brain, u23407_at Rattus norvegicus cellular retinoic acid-binding protein II (CRABP II) RNA): 9.2 fold change | Kainic Acid Seizure (fold change) (brain, u33500_g_at retinol dehydrogenase type II RNA): NC | Kainic Acid Seizure (fold change) (brain, u78102_at krox20 RNA): NC | Kainic Acid Seizure (fold change) (brain, x54686cds_at pJunB gene): NC | Kainic Acid Seizure (fold change) (brain, x60351cds_s alpha B-crystallin): 2.4 fold change | Kainic Acid Seizure (fold change) (brain, x62951RNA_s R. norvegicus RNA (pBUS19) with repetitive): NC | Kainic Acid Seizure (fold change) (brain, x63434_at R. norvegicus RNA for urokinase-type plasminogen activator): NC | Kainic Acid Seizure (fold change) (brain, x63594cds_g_ RL/IF-1 RNA): NC | Kainic Acid Seizure (fold change) (brain, x71127_at complement protein C1q beta): 2.7 fold change | Kainic Acid Seizure (fold change) (brain, x71127_s_at complement protein C1q beta chain): 3.6 fold change | Kainic Acid Seizure (fold change) (brain, x74565cds_g_ TBFII RNA for polypyrimidine tract binding): 5.4 fold change | Kainic Acid Seizure (fold change) (brain, x95986RNA#1 CBR gene): NC | Kainic Acid Seizure (fold change) (brain, x98377_at RNA for emerin): NC | Kainic Acid Seizure (fold change) (brain, x99121RNA#1 RT6 gene, exon 2, testis): NC | Kainic Acid Seizure (fold change) (brain, z22812_at interleukin-1 receptor type 2): NC
